Test results: patent publication US12428406B2 (PMV Pharmaceuticals, Inc., priority 2019, dated 2025)

Each compound was assayed against T1, p53 Y220C (Homo sapiens, UniProt P04637, Y220C) (assay: In vitro DNA binding activity assay (HTRF / TR-FRET): stabilization of p53 Y220C and increase of its DNA binding activity). Settings: recombinant His-tagged p53 Y220C DNA binding domain (aa 94-312), biotin-labeled consensus DNA, incubated at 27° C. or 29° C. for 60 min.
T1 construct: The recombinant protein was a truncation mutant containing only amino acids 94-312 of p53; made in house; host or cells: E. coli
Type: biochemical
In short: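 Compound effect on DNA binding of recombinant His-p53 Y220C (E. coli) to biotin-labeled consensus DNA, expressed as SC150, the concentration giving 50% increase versus untreated. Serial 3-fold DMSO dilutions of 4.5 mM stocks; room-temperature steps of 15 then 20 min.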

T1 sequence (P04637 94-312, change not shown): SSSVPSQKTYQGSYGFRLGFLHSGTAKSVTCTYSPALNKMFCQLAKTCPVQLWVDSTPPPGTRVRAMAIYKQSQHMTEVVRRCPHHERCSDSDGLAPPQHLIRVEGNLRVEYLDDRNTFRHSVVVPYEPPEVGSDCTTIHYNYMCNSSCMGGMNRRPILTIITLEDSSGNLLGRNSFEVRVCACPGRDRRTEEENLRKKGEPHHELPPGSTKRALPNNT

SMILES | SC150 (concentration of the compound required to increase the DNA binding activity by 50%)
CCOc1cc(S(C)(=O)=O)ccc1NCC#Cc1cc2c(N[C@H]3CC[C@H](N4CC5CC(C4)O5)CC3)cccc2n1CC(F)(F)F [Compound 404A, 2-{3-[(2-ethoxy-4-methanesulfonyl-phenyl)amino]prop-1-yn-1-yl}-N-[(1R,4R)-4-{6-oxa-3-azabicyclo[3.1.1]heptan-3-yl}cyclohexyl]-1-(2,2,2-trifluoroethyl)-1H-indol-4-amine] | + (+ = 0 μM ≤ SC150 < 0.05 μM)
CS(=O)(=O)c1ccc(NCC#Cc2cc3c(N[C@H]4CC[C@@H](N5CC6(COC6)C5)CC4)cccc3n2CC(F)(F)F)c(OCC(F)(F)F)c1 [Compound 232A, 2-(3-{[4-methane-sulfonyl-2-(2,2,2-trifluoro-ethoxy)phenyl]amino}prop-1-yn-1-yl)-N-[(1S,4S)-4-{2-oxa-6-azaspiro[3.3]heptan-6-yl}cyclohexyl]-1-(2,2,2-trifluoroethyl)-1H-indol-4-amine] | + (+ = 0 μM ≤ SC150 < 0.05 μM)
COc1cc(S(C)(=O)=O)ccc1NCC#Cc1cc2c(NC3CCN(C)CC3)cccc2n1CC1CO1 (stereo not shown) [Compound 517A, 2-{3-[(4-methanesulfonyl-2-methoxyphenyl)amino]prop-1-yn-1-yl}-N-(1-methylpiperidin-4-yl)-1-[(oxiran-2-yl)methyl]-1H-indol-4-amine] | +++ (+++ = 0.1 μM ≤ SC150 < 0.2 μM)
COc1cc(S(C)(=O)=O)ccc1NCC#Cc1cc2c(NC3CC4CCC(C3)N4C)cccc2n1CC(F)(F)F (stereo not shown) [Compound 990A, 2-{3-[(4-methanesulfonyl-2-methoxyphenyl)amino]prop-1-yn-1-yl}-N-{8-methyl-8-azabicyclo[3.2.1]octan-3-yl}-1-(2,2,2-trifluoroethyl)-1H-indol-4-amine] | + (+ = 0 μM ≤ SC150 < 0.05 μM)
COc1cc(C(N)=O)c(F)cc1NCC#Cc1cc2c(N[C@H]3CC[C@H](N4CC5(COC5)C4)CC3)cccc2n1CC(F)(F)F [Compound 273A, 2-fluoro-5-methoxy-4-{[3-(4-{[(1R,4R)-4-{2-oxa-6-azaspiro[3.3]heptan-6-yl}cyclohexyl]amino}-1-(2,2,2-trifluoroethyl)-1H-indol-2-yl)prop-2-yn-1-yl]amino}benzamide] | + (+ = 0 μM ≤ SC150 < 0.05 μM)
COc1cc(-c2ccncc2)ccc1NCC#Cc1cc2c(NC3CCN(C)CC3)cccc2n1CC(F)(F)F [Compound 504A, 2-(3-{[2-methoxy-4-(pyridin-4-yl)phenyl]amino}prop-1-yn-1-yl)-N-(1-methylpiperidin-4-yl)-1-(2,2,2-trifluoroethyl)-1H-indol-4-amine] | + (+ = 0 μM ≤ SC150 < 0.05 μM)
COc1cc(C(=O)Nc2nccs2)ccc1NCC#Cc1cc2c(N[C@@H]3CCN(C)C[C@@H]3F)cccc2n1CC(F)(F)F [Compound 917A] | + (+ = 0 μM ≤ SC150 < 0.05 μM)

Other lines, results leading:

SC150 (concentration of the compound required to increase the DNA binding activity by 50%) | SMILES
+ (+ = 0 μM ≤ SC150 < 0.05 μM) | COc1cc(S(C)(=O)=O)ccc1NCC#Cc1cc2c(N[C@H]3CC[C@H](N4CC(S(C)(=O)=O)C4)CC3)cccc2n1CC(F)(F)F [Compound 188A, 2-{3-[(4-methane-sulfonyl-2-methoxy-phenyl)amino]prop-1-yn-1-yl}-N-[(1R,4R)-4-(3-methanesulfonyl-azetidin-1-yl)cyclohexyl]-1-(2,2,2-trifluoroethyl)-1H-indol-4-amine]
+ (+ = 0 μM ≤ SC150 < 0.05 μM) | COc1cc(S(=O)(=O)N2CCOCC2)ccc1NCC#Cc1cc2c(NC3CCN(CC(O)CO)CC3)cccc2n1CC(F)(F)F (stereo not shown) [Compound 582A, 3-(4-{[2-(3-{[2-methoxy-4-(morpholine-4-sulfonyl)phenyl]amino}prop-1-yn-1-yl)-1-(2,2,2-trifluoroethyl)-1H-indol-4-yl]amino}piperidin-1-yl)propane-1,2-diol]
+ (+ = 0 μM ≤ SC150 < 0.05 μM) | COc1cc(S(C)(=O)=O)ccc1NCC#Cc1cc2c(NC3CCOCC3)cc(F)cc2n1CC(F)(F)F [Compound 997A, 6-fluoro-2-{3-[(4-methanesulfonyl-2-methoxyphenyl)amino]prop-1-yn-1-yl}-N-(oxan-4-yl)-1-(2,2,2-trifluoroethyl)-1H-indol-4-amine]
+ (+ = 0 μM ≤ SC150 < 0.05 μM) | N#CCOc1cc(S(N)(=O)=O)ccc1NCC#Cc1cc2c(N[C@H]3CC[C@H](N4CC5(CCOCC5)C4)CC3)cccc2n1CC(F)(F)F [Compound 299A, 3-(cyanomethoxy)-4-{[3-(4-{[(1R,4R)-4-{7-oxa-2-azaspiro[3.5]nonan-2-yl}cyclo-hexyl]amino}-1-(2,2,2-trifluoroethyl)-1H-indol-2-yl)prop-2-yn-1-yl]amino}benzene-1-sulfonamide]
+ (+ = 0 μM ≤ SC150 < 0.05 μM) | COCC(O)CN1CC[C@H](Nc2cccc3c2cc(C#CCNc2ccc(S(C)(=O)=O)cc2OC)n3CC(F)(F)F)[C@@H](C)C1 (mixture of isomers) [Compound 702A, rac-1-[(3R,4S)-4-[(2-{3-[(4-methanesulfonyl-2-methoxyphenyl)amino]prop-1-yn-1-yl}-1-(2,2,2-trifluoroethyl)-1H-indol-4-yl)amino]-3-methylpiperidin-1-yl]-3-methoxypropan-2-ol]
+ (+ = 0 μM ≤ SC150 < 0.05 μM) | COc1cc(S(C)(=O)=O)ccc1NCC#Cc1cc2c(N[C@H]3CCN(C(C)=O)C[C@H]3F)cccc2n1CC(F)(F)F [Compound 863A, 1-[(3R,4S)-3-fluoro-4-[(2-{3-[(4-methanesulfonyl-2-methoxyphenyl)amino]prop-1-yn-1-yl}-1-(2,2,2-trifluoroethyl)-1H-indol-4-yl)amino]piperidin-1-yl]ethan-1-one]
+ (+ = 0 μM ≤ SC150 < 0.05 μM) | COc1cc(S(=O)(=O)N2CCOCC2)ccc1NCC#Cc1cc2c(NC3CCNCC3)cccc2n1CC(F)(F)F [Compound 459A, 2-(3-{[2-methoxy-4-(morpholine-4-sulfonyl)phenyl]amino}prop-1-yn-1-yl)-N-(piperidin-4-yl)-1-(2,2,2-trifluoroethyl)-1H-indol-4-amine]
+ (+ = 0 μM ≤ SC150 < 0.05 μM) | COc1cc(C(=O)O)ccc1NCC#Cc1cc2c(NC3CCN(C4CCOCC4)CC3)cccc2n1CC(F)(F)F [Compound 724A, 3-methoxy-4-{1[3-(4-{[1-(oxan-4-yl)piperidin-4-yl]amino}-1-(2,2,2-trifluoroethyl)-1H-indol-2-yl)prop-2-yn-1-yl]amino}benzoic acid]
+ (+ = 0 μM ≤ SC150 < 0.05 μM) | CCC(=O)OC(C)CN1CCC(Nc2cccc3c2cc(C#CCNc2ccc(S(N)(=O)=O)cc2OC)n3CC(F)(F)F)CC1 (stereo not shown) [Compound 605A, 1-{4-[(2-{3-[(2-methoxy-4-sulfamoylphenyl)amino]prop-1-yn-1-yl}-1-(2,2,2-trifluoroethyl)-1H-indol-4-yl)amino]piperidin-1-yl} propan-2-yl propanoate]
